{
  "source": "patent US20130030006A1",
  "about": "“AGENT FOR PREVENTING OR TREATING DISEASES ACCOMPANIED BY URINARY PAIN” (priority 2010, published 2013)",
  "key": {"[1]": {"test_system": "rat model with bladder pain", "test": "Rat model with bladder pain (cyclophosphamide pre-treated, bladder expansion)", "format": "in vivo", "procedure": "Action of Compound with Respect to Rat Model with Bladder Pain\nThe analgesic action of the compound against bladder pain was examined using a pathological model. Cyclophosphamide (150 mg/kg) was administered intraperitoneally, and after two days, physiological saline was injected under a non-restraint condition, at a rate of 45 ml/h via a cannula inserted transurethrally into the bladder, thereby rapidly expanding the bladder. Due to rapid expansion of the bladder, amplification of electromyogram spikes in external oblique abdominal muscle accompanying behavior relating to pain was confirmed. The injection amount at this point in time can be taken as a threshold of bladder pain, which makes it possible to evaluate drug efficacy with respect to the threshold of bladder pain. […] For the rats pre-treated with cyclophosphamide, the threshold of bladder pain before and after the administration of a test compound was measured, and the change in amount (Δ ml) was investigated. In order to obtain a value before administration, bladder expansion was performed until a stabilized threshold of bladder pain was consecutively obtained three times, and the average of the threshold of bladder pain of the final three times was taken as a measured value. […] The average of the threshold of bladder pain consecutively measured three times was taken as a value measured after administration."}, "[2]": {"test_system": "rat model with testis pain", "test": "Rat model with testis pain (acetic acid into testes, writhing)", "format": "in vivo", "procedure": "Action of Compound with Respect to Rat Model with Testis Pain\nThe analgesic action of the compound against testis pain was examined using a pathological model. If 1% acetic acid is administered at 1 ml/kg to right and left testes of a rat by using an injection needle, pain behavior (writhing) accompanied by testis pain is observed, which makes it possible to evaluate drug efficacy on the pain behavior. […] The rats were transferred to a cylindrical acryl cage having a diameter of 30 cm and a height of 50 cm, and the number of times of pain behavior shown for 5 minutes to 15 minutes after the acetic acid administration was measured."}, "FAAH": {"target": "T1, FAAH (Homo sapiens, UniProt O00519)", "T1 construct": "Human bladder epithelial carcinoma-derived cell line, 5637 cells (HTB-9; host or cells: 5637 human bladder epithelial carcinoma cells", "T1 sequence (O00519 1-579)": "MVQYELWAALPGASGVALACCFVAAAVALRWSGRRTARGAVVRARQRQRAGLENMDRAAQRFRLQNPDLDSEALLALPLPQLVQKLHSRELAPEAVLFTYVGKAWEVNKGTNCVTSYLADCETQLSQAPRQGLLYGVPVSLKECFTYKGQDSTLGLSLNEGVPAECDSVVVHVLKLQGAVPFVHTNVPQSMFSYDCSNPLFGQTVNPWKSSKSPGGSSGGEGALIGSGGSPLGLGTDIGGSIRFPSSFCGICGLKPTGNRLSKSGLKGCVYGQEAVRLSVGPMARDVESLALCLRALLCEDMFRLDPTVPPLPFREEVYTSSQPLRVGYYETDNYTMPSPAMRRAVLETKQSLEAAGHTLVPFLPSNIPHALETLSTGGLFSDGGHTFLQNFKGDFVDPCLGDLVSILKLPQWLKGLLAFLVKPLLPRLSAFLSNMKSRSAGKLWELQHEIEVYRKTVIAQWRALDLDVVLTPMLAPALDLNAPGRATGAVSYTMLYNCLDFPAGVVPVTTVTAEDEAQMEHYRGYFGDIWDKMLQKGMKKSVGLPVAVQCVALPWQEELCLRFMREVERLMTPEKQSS", "test": "Measurement of IC50 value of substance inhibiting FAAH activity using human bladder epithelial carcinoma-derived cell line 5637", "format": "cell-based", "procedure": "Screening of Substance Inhibiting FAAH Activity by Using Human Bladder Epithelial Carcinoma-Derived Cell Line\n(1) Screening of Substance Inhibiting FAAH Activity\nHuman bladder epithelial carcinoma-derived cell line, 5637 cells (HTB-9; ATCC) were seeded in a 48-well cell culture plate in an amount of 1×10^5 cells/well by using RPMI 1640 medium (Invitrogen) containing 10% fetal bovine serum (HyClone), followed by incubation at 37° C. for 12 hours or longer, and then the cells in each well were washed with 400 μl of a buffer (Hank's Balanced Salt Solution, 20 mM Hepes-NaOH (pH 7.4)). A test substance dissolved in DMSO was added to a substrate solution (the above buffer containing 3 μCi/ml radiolabeled anandamide (anandamide [ethanolamine 1-^3H]) and 10 μM anandamide) so as to have a concentration from 0.003 nM to 30 nM, and as a control, DMSO was added alone. 100 μl/well of the substrate solution was added to the cells, followed by incubation in a CO2 incubator at 37° C. for 30 minutes. […] A substance decreasing a measured value compared to the control was selected as a substance inhibiting FAAH activity. […]"}},
  "data": [
    {"smiles": "NC(=O)c1cncc(OC(=O)N2CCC(CCc3cccc(C(=O)N4CCCC4)c3)CC2)c1", "note": "[Compound J, 5-(aminocarbonyl)pyridin-3-yl 4-{2-[3-(pyrrolidin-1-ylcarbonyl)phenyl]ethyl}piperidine-1-carboxylate]", "values": [
      {"measurement": "Threshold of bladder pain (amount of physiological saline injected), compound-administered group", "setting": "[1]; rat, in vivo, po", "value": "0.150 Δ ml"},
      {"measurement": "Number of times of pain behavior, compound-administered group", "setting": "[2]; rat, in vivo, po", "value": 9.5}
    ]},
    {"smiles": "O=C(Nc1ccccc1)C1CCN(C(=O)Oc2cccnc2)CC1", "note": "[Compound L, pyridin-3-yl 4-(anilinocarbonyl)piperidine-1-carboxylate]", "values": [
      {"measurement": "Threshold of bladder pain (amount of physiological saline injected), compound-administered group", "setting": "[1]; male SD rats, 3 mg/5 ml/kg oral, 120 minutes before measurement, change before vs after administration", "value": "0.173 Δ ml"},
      {"measurement": "Number of times of pain behavior, compound-administered group", "setting": "[2]; male Wistar rats, 3 mg/5 ml/kg oral, 120 minutes before measurement, counted 5 to 15 minutes after acetic acid", "value": 6.7}
    ]},
    {"smiles": "NC(=O)c1cncc(OC(=O)N2CCC(CCc3cccc(C(=O)N4CCCCC4)c3)CC2)c1", "note": "[Compound I, 5-(aminocarbonyl)pyridin-3-yl 4-{2-[3-(piperidin-1-ylcarbonyl)phenyl]ethyl}piperidine-1-carboxylate]", "values": [
      {"measurement": "IC50", "setting": "FAAH", "value": 0.16, "unit": "nM"}
    ]}
  ]
}
